The values that follow come from ChEMBL document CHEMBL1143759, “Losartan and its interaction with copper(II): biological effects” (2007).

The structures appear in SMILES notation.

Test [1] in a line: Inhibition of cell proliferation of rat UMR106 cells at 500 uM. The test is classed as functional. Also noted: scale not given: the % may be the effect or the level left.
A short description of test [2]: Inhibition of cell proliferation of mouse MC3T3E1 cells at 500 uM. The class given is functional, MC3T3-E1. The arrangement: scale not given: the % may be the effect or the level left.

Consider `CCCCc1nc(Cl)c(CO)n1Cc1ccc(-c2ccccc2-c2nnn[n-]2)cc1.[K+]` [LOSARTAN POTASSIUM], for which the Activity in test [1] and in test [2] was 10% throughout.
